Where a SMILES comes first, the peptide text is derived from it. [ ]: non-standard residue; d: D form.
Key:
atherosclerotic lesions = assay: analysis of atherosclerosis (whole aorta en face, aortic sinus); format: in vivo, LDLr−/− mice; settings: completion of the 10-week study
Description: Analysis of atherosclerosis. Atherosclerotic lesion severity was assessed in the aortae as previously described. Briefly, at euthanasia, animals were perfused with PBS, followed by 4% formaldehyde (10% UltraPure EM Grade from Polysciences diluted in PBS, pH 7.2). For en face analysis, the entire mouse aorta was dissected from the proximal ascending aorta to the bifurcation of the iliac artery by using a dissecting microscope. Adventitial fat was removed, and the aorta was opened longitudinally, pinned flat onto black dissecting wax, stained with Sudan IV, and photographed at a fixed magnification. The photographs were digitized, and total aortic areas and lesion areas were calculated by using Adobe Photoshop and NIH Image J software. The results were reported as a percentage of the total aortic area that contained lesions.
As a second assessment of atherosclerosis, lesions of the aortic root (heart sinus) were analyzed^55. Utilizing stereological principles, lesion volume was estimated across a fixed distance of the aortic sinus. After 10 min fixation in 4% paraformaldehyde, hearts were cut at an angle perpendicular to the atria of the heart and embedded in OCT (Tissue-Tek). Frozen hearts were sectioned on a Leica cryostat, with 10-μm sections collected from the beginning of the aortic sinus (defined as when a valve leaflet became visible) to 500 μm below the beginning of the sinus. […] Sections were collected in duplicate at 50-μm intervals. Sections were stained with oil red O, counterstained with Gill hematoxylin 1 (Fischer Scientific International), photographed, and digitized for lesion analysis. Scoring of valve lesion areas was done for each of the 3 valve cusps individually. Lesion areas found only within the valve cusp were measured. […] Lesion volume was calculated from an integration of the measured cross-sectional areas. Prediction of the coefficient of error (CE) in approximating lesion volume was computed using the Cavalieri estimator derived from a covariogram analysis of an ordered set of estimates of cross-sectional areas. This yielded CE values of less than 10% that were acceptable for a stereological computation of lesion volume.

[1] = test system: gut microbiota from cecum of LDLr−/− mice; assay: in vitro en masse screening assay (cecum culture, 16S rRNA sequencing); format: cell-based; settings: ranking in remodeling WD gut microbiota toward CHD microbiota composition
Description: We have established the following in vitro compound screening protocol for en masse gut microbiome remodeling. We obtain fresh gut microbiome content from LDLr^-/- mice conditioned for at least two weeks on WD by surgically removing cecum under anaerobic conditions. These samples are then mixed with growth media, distributed in 96-well plates, and incubated overnight in the presence of the test peptides. The activity and selectivity of each peptide for remodeling the gut microbiota community was assessed en masse by 16S rRNA sequencing of each well. A number of challenges had to be addressed in developing this protocol, including inoculum handling, choice of growth media, assay duration, etc. Our current assay culture condition maintains 50 bacterial genera (overnight culture), which is fairly representative of the 67 genera found in the uncultured community (Table 2). We used a distance scoring algorithm for a more refined compound selection, in which peptides that remodel the microbiota community most completely from the dysfunctional state (WD fed) toward the functional state (CHD fed) are scored higher. Briefly, we first eliminate cyclic D,L-α-peptides that have broad-spectrum antibacterial activity (inhibit >95% of growth of ≥25% of species in the community). The remaining compounds are then ranked based on how well they suppressed the bacterial species that grew in abundance in WD-fed mice. […] Among these, 40 genera decreased while 14 genera increased in abundance by WD feeding. Within the increased 11 genera, there were 19 bacterial species that were also present in our in vitro culture system. Accordingly, compounds were scored highly when they reduced the levels of 19 bacterial species (lowest summed differences in relative abundance) that were increased by WD feeding to be more similar to their levels in a CHD-fed microbiome (see Table 3 for peptide ranking). Based on these analyses, we chose two peptides for further in vivo validation and efficacy studies: the cationic peptide 1, […] NO:1), and the neutral peptide 11, […] NO:11), which ranked high within their respective peptide clusters. In vitro cecum culture and peptide screening. We screened a number of parameters to optimize the in vitro culture condition for maximal bacterial diversity in liquid culture, including a survey of several different growth media, dilution factors for plate inoculation, and incubation times; further details of the development of this in vitro screen will be reported elsewhere. Female LDLr^-/- mice (8-10 weeks of age) were fed a WD for two weeks. Cecum harvest and all assay steps were performed under anaerobic conditions (Coy Laboratory anaerobic chamber). Cecum contents from three mice were pooled for the assay to provide enough material and to minimize the individual variation in gut microbiome. Cecum contents were suspended in PBS (1.5 ml PBS per 100 mg of cecum content). The mixture was vortexed for 5 min and the supernatant was transferred to a new tube. The cecum content mixture was further diluted in Chopped Meat Carbohydrate Broth (BD 297307) for in vitro peptide screening. […] The concentration of peptide stock in DMSO was calculated based on A280 measurement. For each peptide, an initial 20 mM stock was made in DMSO and diluted to 1 mM in 10% sucrose. From that, a 0.64 mM peptide dilution in 10% sucrose was prepared, and each peptide was further diluted into the assay for peptide screening at two concentrations (64 μM and 16 μM). Bacterial DNA was harvested after 24-hour peptide treatment and isolated with Microbial DNA isolation kit (Mo Bio) following the manufacturer's instructions. 16S rRNA gene sequencing and processing. PCR amplicons of the V3-V4 16S rRNA region were amplified and sequenced using an Illumina MiSeq platform. […]

Row | Structure (SMILES) | reduction in atherosclerotic lesions, whole aorta lesion area (atherosclerotic lesions) | reduction of aortic sinus lesion volume (atherosclerotic lesions) | ranked distance to chow [1]
1 | CC(C)C[C@@H]1NC(=O)[C@@H](Cc2c[nH]c3ccccc23)NC(=O)[C@H](CCCCN)NC(=O)[C@@H](Cc2c[nH]cn2)NC(=O)[C@H](CO)NC(=O)[C@@H](Cc2c[nH]cn2)NC(=O)[C@H](CCCCN)NC(=O)[C@@H](Cc2c[nH]c3ccccc23)NC1=O [c[wLwKhShK]] (cyclo([dW]L[dW]K[dH]S[dH]K)) | 37% | 44% | 2
2 | CC(C)C[C@@H]1NC(=O)[C@@H](Cc2c[nH]c3ccccc23)NC(=O)[C@H](CCCNC(=N)N)NC(=O)[C@@H](CCC(=O)O)NC(=O)[C@H](CCC(N)=O)NC(=O)[C@@H](CCC(=O)O)NC(=O)[C@H](CCCNC(=N)N)NC(=O)[C@@H](Cc2c[nH]c3ccccc23)NC1=O [c[wLwReQeR]] (cyclo([dW]L[dW]R[dE]Q[dE]R)) | 48% | 37% | 14

Source: US20220040255A1, “CHEMOTHERAPEUTIC REMODELING OF THE GUT MICROBIOME” (THE SCRIPPS RESEARCH INSTITUTE, priority 2018, published 2022)
